The text below walks through data of paper PMC8705783, “The Effect of Conjugation with Octaarginine, a Cell-Penetrating Peptide on Antifungal Activity of Imidazoacridinone Derivative” (International Journal of Molecular Sciences, 2021).

In brackets after ≈: the same amount, converted by molar mass. Read-outs that look alike come from different tables or passages of the source.

Series [1] concerns Saccharomyces cerevisiae ATCC 9763. As to the kind of experiment: microbe, parasite or virus in culture. To be noted: ATCC9763, 24 h, pH 7.
For series [2], the target named is T1, yeast topoisomerase II (Saccharomyces cerevisiae, UniProt P06786). As to the kind of experiment: Yeast topoisomerase II relaxation assay. To be noted: supercoiled pBR322, tested at 1-200 μM. Format: biochemical. The method, then: Due to the known activity of acridine and acridone derivatives as human topoisomerase inhibitors widely analysed for cancer chemotherapy, we decided to analyse the influence of Compound 1 as well as its R8 conjugate on the fungal equivalent of that enzyme. The relaxation of supercoiled plasmid DNA by yeast topoisomerase II (yTOPO II) was studied in the presence of different concentrations of both compounds.
The inhibition of yeast topoisomerase II was analysed according to the relaxation assay kit from Inspiralis (Inspiralis Limited, Norwich, UK). Briefly, 250 ng of supercoiled pBR322 DNA (Thermo Fisher Scientific, Waltham, MA, USA), 1 mM ATP (Inspiralis Limited, UK), and 1–200 μM of the analysed compound were mixed with reaction buffer (1 mM Tris-HCl (pH 7.9), 10 mM KCl, 0.5 mM MgCl2, 0.2 % (by volume) glycerol). The reaction was initiated by the addition of an enzyme, allowed to proceed at 30 °C for 30 min and terminated by addition of 40% (m/V) sucrose, 100 mM Tris-HCl pH 8, 10 mM EDTA, and 0.5 mg mL^−1 Bromophenol Blue. Two-step extraction with chloroform:isoamyl alcohol (24:1, by volume) and butanol water was performed and mixtures were analysed on 1% agarose gel in 1 × TAE buffer, 3h, 4.5 V cm^−1. Gel was stained in GelRed 3 × staining solution (Biotium, Fremont, CA, USA) for 30 min and photographed with Gel Doc XR+Gel Documentation System (Bio-Rad: Hercules, CA, USA).

The test system of a further series is HEK-293. As to the kind of experiment: cells. Format: cell-based, human. The method, then:
(§1) The investigated compounds were screened for their in vitro antiproliferative activity towards a human embryonic kidney cell line (HEK-293) and human liver cancer cell line (HEPG2) using colorimetric MTT.
(§2) The human embryonic kidney cell line (HEK-293) and human liver cancer cell line (HEPG2) were purchased from ATCC (Manassas, Virginia, USA). HEK-293 was cultured in Dulbecco’s Modified Eagle Medium (Corning, NY, USA) and HEPG2 in Minimum Essential Medium Eagle (Corning, NY, USA). For each cell line, the culture medium was supplemented with 10% fetal bovine serum, 2 mM L-glutamine, and antibiotics: penicillin 62.6 µg mL^−1 and streptomycin 40 µg mL^−1. The cells were cultured at the humidified atmosphere of 5% CO2/95% air and routinely tested for Mycoplasma contamination.
(§3) Antiproliferative activity of the compounds was determined by (3-(4,5-dimethylthiazol-2-yl)-2,5-diphenyltetrazolium bromide (MTT, Sigma-Aldrich, St. Louis, MO, USA) assay, which involves the assessment of cell viability by the measurement of the cellular oxidoreductase activity. Briefly, cells were seeded into 96-well culture plates and were allowed to adhere overnight. The investigated compounds were dissolved in DMSO and added to wells (1% final concentration of DMSO) in various concentrations. After 72 h incubation, 20 µL of MTT solution in PBS (4 mg mL^−1) was added to each well, and plates were incubated for an additional 3h in standard culture conditions. After that, the medium was aspirated, and formazan crystals were dissolved in DMSO. The absorbance was determined at 570 nm with a microplate reader (Asys UVM 340 Microplate Reader, Biochrom, Cambridge, UK). All experiments were performed three times independently in triplicate.

A further series has as its system HEPG2. As to the kind of experiment: cells. Format: cell-based, human. How it is done: as §1, §2, §3
Another series concerns reference strains. As to the kind of experiment: Antifungal activity, summary over reference strains. The arrangement: key to Antifungal Activity (level): (−) Means no antifungal activity; (±) low activity; (+) moderate activity; (++) high activity at the concentration mentioned. Format: cell-based.
The test system of series [3] is Candida krusei ATCC 6258.
Another series has as its target human topoisomerase II. To be noted: cited from earlier work.
Series [4] addresses T1, yeast topoisomerase II. As to the kind of experiment: Formation of cleavable complexes in vitro. The series is classed as biochemical. To be noted: 0.1-10 μM, pBR322 plasmid DNA. How it is done:
Cleavage assay of yeast topoisomerase II was performed according to the formation of cleavable complexes kit from Inspiralis. The experimental conditions were the same as for the relaxation assay except for the amount of yeast topoisomerase II (16 times more enzyme was used). The reaction was initiated by the addition of the enzyme and allowed to proceed for 10 min at 30 °C. Then, 0.35% SDS and 0.3 mg mL^−1 proteinase K (A&A Biotechnology, Gdynia, Poland) was added, and the probes were incubated in 56 °C for 1 h. The reaction was terminated by the addition of 100 mM Tris-HCl pH 8, 10 mM EDTA, 0.5 mg mL^−1 Bromophenol Blue. Extraction with chloroform:isoamyl alcohol (24:1, by volume) was performed, and mixtures were analysed on the 1.2% agarose gel with 0.5 µg mL^−1 ethidium bromide in 1x TAE buffer, 18 h, 1.1 V cm^−1. Gel was photographed with the Gel Doc XR+Gel Documentation System.

Series [5] concerns Candida albicans ATCC 10231. As to the kind of experiment: microbe, parasite or virus in culture. To be noted: ATCC10231, 24 h, pH 7.
A further series concerns HEK-293 and HEPG2. As to the kind of experiment: Antiproliferative activity, MTT, both tested cell lines. Format: cell-based. To be noted: Homo sapiens; Table 5. How it is done:
as §1
The human embryonic kidney cell line (HEK-293) and human liver cancer cell line (HEPG2) were purchased from ATCC (Manassas, Virginia, USA). HEK-293 was cultured in Dulbecco’s Modified Eagle Medium (Corning, NY, USA) and HEPG2 in Minimum Essential Medium Eagle (Corning, NY, USA). For each cell line, the culture medium was supplemented with 10% fetal bovine serum, 2 mM L-glutamine, and antibiotics: penicillin 62.6 µg mL^−1 and streptomycin 40 µg mL^−1. […]
as §3, with “After that, the medium was aspirated, and formazan crystals were dissolved in DMSO. The absorbance was determined at 570 nm with a microplate reader (Asys UVM 340 Microplate Reader, Biochrom, Cambridge, UK). All experiments were performed three times independently in triplicate.” left out

The test system of a further series is Candida albicans cells. Also noted: method as in PMID 23563951. As to conditions: cited from earlier work.
The subject of the next series is Candida albicans. The arrangement: method as in PMID 23563951. To be noted: cited from earlier work.
For series [6], the system named is Candida glabrata ATCC 90030.
Series [7] deals with Saccharomyces cerevisiae ATCC 9763.
Series [8] relates to Candida glabrata ATCC 90030. As to the kind of experiment: microbe, parasite or virus in culture. To be noted: Nakaseomyces glabratus, ATCC90030, 24 h, pH 7.
Series [9] deals with Candida krusei ATCC 6258. As to the kind of experiment: microbe, parasite or virus in culture. To be noted: Pichia kudriavzevii, ATCC6258, 24 h, pH 7.
In series [10] the test system is Candida parapsilosis ATCC 22019. As to the kind of experiment: microbe, parasite or virus in culture. As to conditions: Lodderomyces parapsilosis, ATCC22019, 24 h, pH 7.
In series [11] the test system is Candida albicans ATCC 10231.
The subject of series [12] is Candida parapsilosis ATCC 22019.
In the next series the test system is Candida albicans F2. As to conditions: F2, 12 h.
Another series deals with Candida albicans B4. As to conditions: B4, 12 h.
A further series concerns HeLa cells. To be noted: cited from earlier work.
The subject of a further series is Candida albicans F5. To be noted: F5, 12 h.
In another series the test system is Candida albicans Gu5. As to conditions: Gu5, 12 h.
The test system of another series is Candida albicans Gu4. As to conditions: Gu4, 12 h.
The subject of another series is Candida albicans B3. As to conditions: B3, 12 h.

T1 sequence (P06786 whole entry): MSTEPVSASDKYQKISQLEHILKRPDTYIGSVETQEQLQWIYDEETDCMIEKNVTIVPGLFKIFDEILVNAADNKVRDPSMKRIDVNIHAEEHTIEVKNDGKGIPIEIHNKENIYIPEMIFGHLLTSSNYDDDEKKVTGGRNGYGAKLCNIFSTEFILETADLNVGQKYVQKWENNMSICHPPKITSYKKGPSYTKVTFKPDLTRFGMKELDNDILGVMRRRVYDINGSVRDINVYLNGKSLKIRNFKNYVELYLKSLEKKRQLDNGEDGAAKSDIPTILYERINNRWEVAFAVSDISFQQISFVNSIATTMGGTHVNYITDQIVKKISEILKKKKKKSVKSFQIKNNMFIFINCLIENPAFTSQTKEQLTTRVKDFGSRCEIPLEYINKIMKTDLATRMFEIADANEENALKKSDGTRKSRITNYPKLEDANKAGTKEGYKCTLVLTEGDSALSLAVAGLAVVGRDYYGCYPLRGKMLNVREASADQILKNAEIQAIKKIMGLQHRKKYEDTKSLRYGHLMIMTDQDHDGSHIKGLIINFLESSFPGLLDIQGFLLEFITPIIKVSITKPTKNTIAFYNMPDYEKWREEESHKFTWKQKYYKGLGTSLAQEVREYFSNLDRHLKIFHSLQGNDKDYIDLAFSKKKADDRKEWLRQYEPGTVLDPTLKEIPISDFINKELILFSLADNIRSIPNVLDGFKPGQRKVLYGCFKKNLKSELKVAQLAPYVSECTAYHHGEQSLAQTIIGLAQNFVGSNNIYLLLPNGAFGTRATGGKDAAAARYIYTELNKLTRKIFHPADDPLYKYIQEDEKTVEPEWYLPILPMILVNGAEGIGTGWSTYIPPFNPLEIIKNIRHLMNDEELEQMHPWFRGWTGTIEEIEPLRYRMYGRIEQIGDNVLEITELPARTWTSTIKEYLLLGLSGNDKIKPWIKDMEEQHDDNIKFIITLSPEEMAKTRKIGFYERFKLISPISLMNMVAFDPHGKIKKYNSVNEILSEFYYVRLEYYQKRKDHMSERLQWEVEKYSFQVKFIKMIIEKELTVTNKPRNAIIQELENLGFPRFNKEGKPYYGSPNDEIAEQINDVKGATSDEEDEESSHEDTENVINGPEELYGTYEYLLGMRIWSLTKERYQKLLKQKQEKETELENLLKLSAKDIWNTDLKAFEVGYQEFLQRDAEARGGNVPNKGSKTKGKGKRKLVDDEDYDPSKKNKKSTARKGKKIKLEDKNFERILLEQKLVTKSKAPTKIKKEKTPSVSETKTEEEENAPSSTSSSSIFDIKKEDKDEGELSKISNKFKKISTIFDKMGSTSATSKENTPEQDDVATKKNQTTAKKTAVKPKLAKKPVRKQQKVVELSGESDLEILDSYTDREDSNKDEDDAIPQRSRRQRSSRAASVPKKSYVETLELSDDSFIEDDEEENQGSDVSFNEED

For the compound `CCN(CC)CCNc1ccc2ncn3c4ccc(O)cc4c(=O)c1c23` [Compound C-1311, 5-((2-(Diethylamino)ethyl)amino)-8-hydroxy-6H-imidazo[4,5,1-de]acridin-6-one], the MIC90 (in series [1]; in series [5]; in series [8]; in the series with Candida krusei ATCC 6258 [9]; in [10]) was over 64 µg/mL throughout. Moreover, the “concentration that totally inhibited yeast topoisomerase II-mediated relaxation” value at yeast topoisomerase II [2] came out at 50 µM. In addition, the IC50 (as a rule, the point on the concentration scale where inhibition reaches its midpoint) in the series on HEK-293 (Homo sapiens, HEK293, 72 h treatment, MTT, ± SD, read-out: IC50 (antiproliferative activity)) is 8 ± 7 nM; in the series with HEPG2 (Homo sapiens, HEPG2, 72 h treatment, MTT, ± SD, read-out: IC50 (antiproliferative activity)), 129 ± 37 nM; at human topoisomerase II (read-out: IC50 (hTOPO II inhibition)) it was 6500 nM; with HEK-293 and HEPG2, at most 1000 nM. Further, the “Antifungal Activity (level)” value with reference strains (Table 3) is on record as “−”. Also, the “antifungal activity” value in the series with reference strains (as reported in Table 1) and in the series on Candida albicans was “no antifungal activity was observed” each time. Also, the “IC50 HEK293/MIC90 (mycostatic selectivity index)” value is under 0.00005 with Candida krusei ATCC 6258 [3] (HEK293 vs Candida krusei ATCC 6258); under 0.00005 in series [6] (HEK293 vs Candida glabrata ATCC 90030); under 0.00005 in [7] (HEK293 vs Saccharomyces cerevisiae ATCC 9763); under 0.00005 in [11] (HEK293 vs Candida albicans ATCC 10231, MIC converted to micromolar); under 0.00005 in series [12] (HEK293 vs Candida parapsilosis ATCC 22019). Also, the “IC50 HEPG2/MIC90 (mycostatic selectivity index)” value (in the series on Candida krusei ATCC 6258 [3] (HEPG2 vs Candida krusei ATCC 6258); in [6] (HEPG2 vs Candida glabrata ATCC 90030); in [7] (HEPG2 vs Saccharomyces cerevisiae ATCC 9763); in series [11] (HEPG2 vs Candida albicans ATCC 10231); in series [12] (HEPG2 vs Candida parapsilosis ATCC 22019)) was under 0.00078 in each case. Further, at human topoisomerase II, the “IC50 (hTOPO II inhibition)” value is 2.5 µg/mL (≈ 7.13 µM). Besides, the “formation of DNA–yeast topoisomerase II cleavable complexes” value on yeast topoisomerase II [4] is “stimulated the formation of DNA–yeast topoisomerase II cleavable complexes”. Also, the “accumulation in Candida albicans cells” value in the series with Candida albicans cells is listed as “unable to accumulate in Candida albicans cells”.
Regarding `N=C(N)NCCC[C@H](NC(=O)[C@H](CCCNC(=N)N)NC(=O)[C@H](CCCNC(=N)N)NC(=O)[C@H](CCCNC(=N)N)NC(=O)[C@H](CCCNC(=N)N)NC(=O)[C@H](CCCNC(=N)N)NC(=O)[C@H](CCCNC(=N)N)NC(=O)[C@@H](N)CCCNC(=N)N)C(=O)O` [Compound R8, Octaarginine], the MIC90 is over 64 µg/mL against Candida albicans F2; over 64 µg/mL with Candida albicans B4; over 64 µg/mL in the series with Candida albicans F5; over 64 µg/mL in the series on Candida albicans Gu5; over 64 µg/mL in the series with Candida krusei ATCC 6258 [3] (ATCC 6258, 24 h, pH 7); over 64 µg/mL with Candida albicans Gu4. The MIC90 in series [6] (ATCC 90030, 24 h, pH 7) is over 64 µg/mL; in series [7] (ATCC 9763, 24 h, pH 7) it was 64 µg/mL (≈ 50.5 µM); in [11] (ATCC 10231, 18 h), over 64 µg/mL; in series [11] (ATCC 10231, 24 h, pH 7), over 64 µg/mL; in [12] (ATCC 22019, 24 h, pH 7) it was 64 µg/mL (≈ 50.5 µM); against Candida albicans B3 it was over 64 µg/mL. Moreover, the IC50 in the series with HEK-293 (72 h) and in the series on HEPG2 (72 h) was over 50000 nM in each case. For the same compound, the cytotoxicity entry in the series on HeLa cells is recorded as “no cytotoxicity”.
